# Reference: patent US7521454B2 (Dainippon Sumitomo Pharma Co., Ltd., priority 2001, dated 2009)
# Structures can show the parent of a compound that is named as a salt. Where two headings read alike, the source gives them in different places.
# How the values were obtained:
# [1] = test system: mouse spleen cell; assay: cells; format: cell-based; settings: for minimal effective concentration: Mus musculus, 24 h, read-out: Interferon-inducing activity: Minimum effective concentration
# [2] = Gastrointestinal absorption in rat (drug level in blood by HPLC); format: in vivo; settings: SD male rat
# Procedure: A test compound was suspended in an aqueous solution of 0.5% carboxymethylcellulose, and the resulting suspension was orally administered to an SD male rat. Blood was sampled with the elapse of time, and the level of the drug in blood was assayed by HPLC.
# [3] = test system: IL-4 production; assay: Inhibitory activity against Th2 cytokine produced from sensitized spleen cells: IL-4; format: cell-based, mouse; settings: OVA-sensitized BALB/c spleen cells, 3 days; for activity at 0.001 µM / activity at 0.01 µM / activity at 0.1 µM / activity at 0.0001 µM: Mus musculus, 72 h; for activity at 0.001 µM / activity at 0.01 µM / activity at 0.1 µM: read-out: Inhibitory activity against IL-4 production
# Procedure: (§1) A 7-week-old BALB/c mouse was immunized intraperitoneally with aluminum hydroxide gel (4 mg, 100 μl) having 10 μg of ovalbumin adsorbed thereon, and it was subjected to additional immunization with the same agent 14 days later. Seven days thereafter, spleen was taken out, and suspended in RPMI-1640 comprising inactivated fetal bovine serum (10%), 2-mercaptoethanol ([…]), penicillin G (100 U/ml), and streptomycin (100 μg/ml). Thus, a splenic cell suspension was prepared. Ovalbumin (0.5 mg/ml) and a test compound were added to a splenic cell suspension (5×10^6 cell/200 μl/well), and the resultant was cultured at 37° C. in the presence of 5% CO2 for 3 days. The cytokine level in the culture supernatant was quantified by ELISA. IFN-γ and IL-4 were assayed using a kit available from Amersham, and IL-5 was assayed using a kit available from Endogen.
# [4] = test system: IL-5 production; assay: Inhibitory activity against Th2 cytokine produced from sensitized spleen cells: IL-5; format: cell-based, mouse; settings: OVA-sensitized BALB/c spleen cells, 3 days; for activity at 0.001 µM / activity at 0.01 µM / activity at 0.1 µM / activity at 0.0001 µM: Mus musculus, 72 h; for activity at 0.001 µM / activity at 0.01 µM / activity at 0.1 µM: read-out: Inhibitory activity against IL-5 production
# Procedure: as §1
# [5] = Solubility in citric acid/disodium phosphate buffers; settings: citric acid/disodium phosphate buffer, thermodynamic from solid
# Procedure: 5.53% citric acid (monohydrate) and 1.75% disodium phosphate (anhydrous) were mixed together to prepare buffers (pH 2.5, 5.5, 7.4). A compound was added thereto, the mixture was stirred in a vortex mixer and subjected to ultrasonication for 30 minutes. Thereafter, the resultant was stirred in a vortex mixer again and then centrifuged at 15,000 rpm for 20 minutes. The levels of the compounds in the supernatants were then quantified by HPLC.
# [6] = test system: Balb/c male mouse; assay: Interferon-inducing activity in mouse (in vivo), serum interferon titer after oral dosing
# [7] = test system: human peripheral blood mononuclear cells (PBMC); assay: Interferon-inducing activity in human peripheral blood mononuclear cells (PBMC), IFN-α ELISA; format: cell-based; settings: 24 h;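 note: IFN-α in pg/ml with a 1.25 pg/ml detection limit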
# Procedure: Peripheral bloods were sampled from 5 healthy volunteers using a syringe containing heparin, and peripheral blood mononuclear cells (PBMC) were prepared by density gradient centrifugation utilizing the Lymphoprep™ (NYCOMED PHARMA AS). PBMCs were washed twice in serum-free RPMI 1640 medium and adjusted at 1×10^6 cells/ml in RPMI 1640 medium comprising 10% fetal bovine serum. The product was cultured in the presence of a test compound dissolved in dimethyl sulfoxide (final concentration: 0.1%) in an incubator in the presence of 5% CO^2 at 37° C. for 24 hours. As a control, 0.1% dimethyl sulfoxide containing no test compound was used. The culture supernatant was aseptically collected by filtration. Thereafter, the supernatant was cryopreserved at −20° C. or lower until it was subjected to the assay for IFN-inducing activity. Human IFN-α in the culture supernatant was quantified using a highly sensitive ELISA system (Amersham).
# [8] = blood, dose 3 mg/kg oral, read-out: Cmax
# [9] = blood, dose 3 mg/kg oral, read-out: Tmax
# [10] = dosage 0.03 mg/kg oral, serum 2 h after dosing, Balb/c mouse
# [11] = dosage 0.1 mg/kg oral, serum 2 h after dosing, Balb/c mouse
# [12] = dosage 0.3 mg/kg oral, serum 2 h after dosing, Balb/c mouse
Compound,minimal effective concentration [1],activity at 0.001 µM ([3]; concentration 1 nM),activity at 0.01 µM ([3]; concentration 10 nM),activity at 0.1 µM ([3]; concentration 100 nM),activity at 0.001 µM ([4]; concentration 1 nM),activity at 0.01 µM ([4]; concentration 10 nM),activity at 0.1 µM ([4]; concentration 100 nM),"solubility at 30 min ([5]; pH 2.5, aqueous buffer)","solubility at 30 min ([5]; pH 5.5, aqueous buffer)","solubility at 30 min ([5]; pH 7.4, aqueous buffer)","Interferon-inducing activity [6, 11]","Interferon-inducing activity [6, 12]",Interferon-inducing activity (human IFN-α in culture supernatant) ([7]; concentration 1 nM),Interferon-inducing activity (human IFN-α in culture supernatant) ([7]; concentration 3 nM),activity at 0.0001 µM ([3]; concentration 0.1 nM),activity at 0.0001 µM ([4]; concentration 0.1 nM),"Interferon-inducing activity ([6]; po, 0.1 mg/kg, 2 h)","Interferon-inducing activity ([6]; po, 0.3 mg/kg, 2 h)",also measured
"CC(C)Cn1cnc2c(N)nc3ccccc3c21 [Comparative Example 1, Imiquimod, reference compound]",0.3 µM,18%,1%,< 1%,54%,15%,10%,–,–,–,–,–,–,–,–,–,–,–,"Cmax [2, 8]: 0.09 µg/mL; Tmax [2, 9]: 30 min"
"CCCCOc1nc(N)c2nc(O)n(Cc3ccc(C)nc3)c2n1 [Example 25, 2-Butoxy-8-hydroxy-9-(6-methyl-3-pyridylmethyl)adenine]",0.001 µM,2%,< 1%,< 1%,31%,13%,13%,> 1 mg/mL,0.005 mg/mL,0.003 mg/mL,753 ± 140 U/ml,721 ± 299 U/ml,28 ± 24 pg/mL,46 ± 34 pg/mL,86%,102%,–,–,"Interferon-inducing activity ([6]; dosage 0.01 mg/kg oral, serum 2 h after dosing, Balb/c mouse): 65 ± 52 U/ml; Interferon-inducing activity [6, 10]: 151 ± 29 U/ml; Interferon-inducing activity (human IFN-α in culture supernatant) ([7]; concentration 0.3 nM): 7 ± 3 pg/mL"
"CCCCOc1nc(N)c2nc(O)n(Cc3ccc(C)nc3)c2n1 [Hydrochloride of Example 25, 2-Butoxy-8-hydroxy-9-(6-methyl-3-pyridylmethyl)adenine]",–,–,–,–,–,–,–,–,–,–,–,–,–,–,–,–,–,–,"Cmax [2, 8]: 0.018 µg/mL; Tmax [2, 9]: 60 min; Cmax ([2]; blood, dose 10 mg/kg oral, read-out: Cmax): 0.15 µg/mL; Tmax ([2]; blood, dose 10 mg/kg oral, read-out: Tmax): 15 min"
"CCCCNc1nc(N)c2nc(O)n(Cc3ccccc3)c2n1 [Reference Compound 1, 9-Benzyl-2-butylamino-8-hydroxyadenine, reference compound]",0.1 µM,–,109%,24%,–,92%,69%,0.026 mg/mL,< 0.001 mg/mL,< 0.001 mg/mL,–,–,–,–,–,–,55 ± 25 U/ml,275 ± 165 U/ml,–
"CCCCNc1nc(N)c2nc(O)n(Cc3ccncc3)c2n1 [Example 22, 2-Butylamino-8-hydroxy-9-(4-pyridylmethyl)adenine]",0.01 µM,88%,9%,1%,115%,50%,18%,> 80 mg/mL,0.073 mg/mL,0.016 mg/mL,–,–,–,–,–,–,21 ± 9 U/ml,332 ± 83 U/ml,–
"CCCCNc1nc(N)c2nc(O)n(Cc3cccnc3)c2n1 [Example 21, 2-Butylamino-8-hydroxy-9-(3-pyridylmethyl)adenine]",0.003 µM,53%,1%,< 1%,97%,23%,15%,15 mg/mL,0.045 mg/mL,0.064 mg/mL,–,–,–,–,–,–,290 ± 134 U/ml,571 ± 164 U/ml,"Interferon-inducing activity ([6]; po, 0.03 mg/kg, 2 h): 15 ± 8 U/ml"
"1-(2-hydroxy-2-methylpropyl)-2-methoxyethyl-1H-imidazo[4,5-c]quinoline-4-amine [Comparative Example 2, reference compound]",–,–,–,–,–,–,–,–,–,–,1638 ± 246 U/ml,1961 ± 950 U/ml,— ((−) indicates a detection limit (1.25 pg/ml) or lower),6 ± 5 pg/mL,–,–,–,–,Interferon-inducing activity (human IFN-α in culture supernatant) ([7]; concentration 0.3 nM): — ((−) indicates a detection limit (1.25 pg/ml) or lower); Interferon-inducing activity: Minimum effective concentration [1]: 3 nM; Cmax ([2]; dose 3 mg/kg oral): 0.019 µg/mL; Tmax ([2]; dose 3 mg/kg oral): 60 min; Cmax ([2]; dose 10 mg/kg oral): 0.015 µg/mL; Tmax ([2]; dose 10 mg/kg oral): 30 min; Inhibitory activity against IL-4 production ([3]; concentration 0.1 nM): 90 % of control; Inhibitory activity against IL-4 production ([3]; concentration 1 nM): 24 % of control; Inhibitory activity against IL-4 production ([3]; concentration 10 nM): 1 % of control; Inhibitory activity against IL-4 production ([3]; concentration 100 nM): <1 % of control; Inhibitory activity against IL-5 production ([4]; concentration 0.1 nM): 106 % of control; Inhibitory activity against IL-5 production ([4]; concentration 1 nM): 73 % of control; Inhibitory activity against IL-5 production ([4]; concentration 10 nM): 18 % of control; Inhibitory activity against IL-5 production ([4]; concentration 100 nM): 10 % of control
"CCCCNc1nc(N)c2nc(O)n(Cc3ccccn3)c2n1 [Example 20, 2-Butylamino-8-hydroxy-9-(2-pyridylmethyl)adenine]",0.03 µM,106%,23%,2%,106%,71%,19%,8.81 mg/mL,–,–,–,–,–,–,–,–,–,–,–
"CCCCOc1nc(N)c2nc(O)n(Cc3ccccc3)c2n1 [Reference Compound 2, 9-benzyl-2-butoxy-8-hydroxyadenine, reference compound]",0.001 µM,48%,1%,< 1%,79%,16%,11%,0.002 mg/mL,< 0.001 mg/mL,< 0.001 mg/mL,–,–,— ((−) indicates a detection limit (1.25 pg/ml) or lower),7 pg/mL,107%,99%,186 ± 42 U/ml,317 ± 160 U/ml,"Interferon-inducing activity ([6]; po, 0.03 mg/kg, 2 h): 60 ± 40 U/ml; Interferon-inducing activity (human IFN-α in culture supernatant) ([7]; concentration 10 nM): 23 ± 22 pg/mL; Interferon-inducing activity (human IFN-α in culture supernatant) ([7]; concentration 30 nM): 64 ± 40 pg/mL"
"CCCCOc1nc(N)c2nc(O)n(Cc3ccc(Cl)nc3)c2n1 [Example 1, 2-Butoxy-9-(6-chloro-3-pyridylmethyl)-8-hydroxyadenine]",0.001 µM,7%,2%,< 1%,41%,16%,15%,–,–,–,322 ± 95 U/ml,623 ± 32 U/ml,–,–,98%,116%,–,–,"Interferon-inducing activity [6, 10]: 123 ± 87 U/ml"
